Results taken from patent US11253460B2, “Cosmetic compositions” (Mary Kay Inc., priority 2013, dated 2022).

Columns and labels:
Format in all cases: cell-based
B16-F1 melanocytes = assay: B16 Pigmentation Assay
Description: B16 Pigmentation Assay: Melanogenesis is the process by which melanocytes produce melanin, a naturally produced pigment that imparts color to skin, hair, and eyes. Inhibiting melanogenesis is beneficial to prevent skin darkening and lighten dark spots associated with aging. This bioassay utilizes B16-F1 melanocytes (ATCC), an immortalized mouse melanoma cell line, to analyze the effect of compounds on melanogenesis. The endpoint of this assay is a spectrophotometric measurement of melanin production and cellular viability. B16-F1 melanocytes, can be cultivated in standard DMEM growth medium with 10% fetal bovine serum (Mediatech) at 37° C. in 10% CO2 and then treated with any one of the active ingredients, combination of ingredients, or compositions having said combinations disclosed in the specification for 6 days. Following incubation, melanin secretion was measured by absorbance at 405 nm and cellular viability was quantified.

[1] = tested on: TNF-α production by human epidermal keratinocytes; assay: Tumor Necrosis Factor Alpha (TNF-α) Assay (ELISA)
Description: Tumor Necrosis Factor Alpha (TNF-α) Assay: The prototype ligand of the TNF superfamily, TNF-α, is a pleiotropic cytokine that plays a central role in inflammation. Increase in its expression is associated with an up regulation in pro-inflammatory activity. This bioassay can be used to analyze the effect of any one of the active ingredients, combination of ingredients, or compositions having said combinations disclosed in the specification on the production of TNF-α by human epidermal keratinocytes. The endpoint of this assay can be a spectrophotometric measurement that reflects the presence of TNF-α and cellular viability. The assay employs the quantitative sandwich enzyme immunoassay technique whereby a monoclonal antibody specific for TNF-α has been pre-coated onto a microplate. […] Following a wash to remove any unbound antibody-enzyme reagent, a substrate solution can be added to the wells and color develops in proportion to the amount of TNF-α bound in the initial step using a microplate reader for detection at 450 nm. The color development can be stopped and the intensity of the color can be measured. […] Following incubation, cell culture medium can be collected and the amount of TNF-α secretion quantified using a sandwich enzyme linked immuno-sorbant assay (ELISA) from R&D Systems (#DTA00C).

[2] = tested on: IL-1α production by Human Epidermal Keratinocytes; assay: IL-1α Assay (ELISA, cell culture supernates)
Description: IL-1α Assay: A quantitative sandwich enzyme immunoassay technique(ELISA) was used to measure IL-1α in cell culture supernates. A monoclonal antibody that is specific for IL-1α was pre-coated onto a microplate. Standards and treatment samples are then pipetted into the wells and any IL-1α present is bound by the immobilized antibody. After washing away any unbound substances, an enzyme-linked polyclonal antibody specific for IL-1α is added to the wells. Following a wash to remove any unbound antibody-enzyme reagent, a substrate solution is added to the wells and color develops in proportion to the amount of IL-1α bound which was secreted in response to the treatment.

Compound: NC(=O)c1cccnc1 [Niacinamide]
- Inhibits Melanogenesis with Mouse Melanocytes (B16-F1 Assay) (B16-F1 melanocytes): (−28%)

Compound: Acetyl dipeptide-1 Cetyl Ester
- Inhibit TNF-α Production by Human Epidermal Keratinocytes [1]: 88%
- Inhibit IL-1α Production by Human Epidermal Keratinocytes (% inhibition) [2]: 97%
